According to US10196403B2, “Compounds and compositions and uses thereof” (Sunovion Pharmaceuticals Inc., priority 2016, dated 2019):

System: mice
Assay: Neuropharmacological Assay (SmartCube)
Assay type: in vivo
Details: for minimal effective dose: Mus musculus, read-out: POTENCY (minimal effective dose, MED); for minimal effective dose / POTENCY (minimal effective dose, MED): MED = dose having 50% or more total activity in SmartCube; for AD: ADHD (SmartCube probability) / AG: analgesic (SmartCube probability) / AX: anxiolytic (SmartCube probability) / CE: cognitive enhancer (SmartCube probability) / DP: anti-depressant (SmartCube probability) / MS: mood stabilizer (SmartCube probability) / PS: anti-psychotic (SmartCube probability) / SD: sedative hypnotic (SmartCube probability) / UN: uncharacterized CNS activity (SmartCube probability): mice, i.p. 15 min before test, most efficacious dose(s) of 3 doses
In short: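 Compounds in NMP/PEG/propylene glycol given i.p. 15 min before automated video-based behavioral testing, at 3 doses; behavioral signature compared with a reference-compound database to give probability per drug class, reported at most efficacious dose. MED = dose (mpk) giving ≥50% total activity; doses typically 0.3–30 mpk.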

Compound	minimal effective dose	AD: ADHD (SmartCube probability)	AG: analgesic (SmartCube probability)	AX: anxiolytic (SmartCube probability)	CE: cognitive enhancer (SmartCube probability)	DP: anti-depressant (SmartCube probability)	MS: mood stabilizer (SmartCube probability)	PS: anti-psychotic (SmartCube probability)	SD: sedative hypnotic (SmartCube probability)	UN: uncharacterized CNS activity (SmartCube probability)	POTENCY (minimal effective dose, MED)
CNC[C@H]1OCCc2cccc(C#N)c21 [Example 44, (S)-1-((methylamino)methyl)isochromane-8-carbonitrile]	3 to 10 mg/kg	+ (LOQ≤ + <5%)	++ (5%≤ ++ <25%)	++ (5%≤ ++ <25%)	++ (5%≤ ++ <25%)	+ (LOQ≤ + <5%)	+ (LOQ≤ + <5%)	++ (5%≤ ++ <25%)	+ (LOQ≤ + <5%)	+++ (25%≤ +++ <50%)	–
CNC[C@@H]1OCCc2cccc(C#N)c21 [Example 45, (R)-1-((methylamino)methyl)isochromane-8-carbonitrile]	3 to 10 mg/kg	+ (LOQ≤ + <5%)	++ (5%≤ ++ <25%)	++ (5%≤ ++ <25%)	++ (5%≤ ++ <25%)	+ (LOQ≤ + <5%)	+ (LOQ≤ + <5%)	++ (5%≤ ++ <25%)	+ (LOQ≤ + <5%)	++++ (50%≤ ++++)	–
CNC[C@H]1OCCc2c(C#N)cccc21 [Example 46, (S)-1-((methylamino)methyl)isochromane-5-carbonitrile]	3 to 10 mg/kg	+ (LOQ≤ + <5%)	+ (LOQ≤ + <5%)	++ (5%≤ ++ <25%)	++ (5%≤ ++ <25%)	++ (5%≤ ++ <25%)	+ (LOQ≤ + <5%)	++ (5%≤ ++ <25%)	++ (5%≤ ++ <25%)	+++ (25%≤ +++ <50%)	–
CNC[C@@H]1OCCc2c(C#N)cccc21 [Example 47, (R)-1-((methylamino)methyl)isochromane-5-carbonitrile]	3 to 10 mg/kg	+ (LOQ≤ + <5%)	+ (LOQ≤ + <5%)	++ (5%≤ ++ <25%)	+ (LOQ≤ + <5%)	++++ (50%≤ ++++)	+ (LOQ≤ + <5%)	++ (5%≤ ++ <25%)	++ (5%≤ ++ <25%)	++ (5%≤ ++ <25%)	–
CC(N)C1OCCc2ccc3c(c21)OCO3 (stereo not drawn) [Example 55]	–	+ (LOQ≤ + <5%)	++ (5%≤ ++ <25%)	++ (5%≤ ++ <25%)	+ (LOQ≤ + <5%)	++ (5%≤ ++ <25%)	+ (LOQ≤ + <5%)	+ (LOQ≤ + <5%)	+ (LOQ≤ + <5%)	++++ (50%≤ ++++)	C (>10 to ≤30 mpk)
CNC(C)C1OCCc2ccc3c(c21)OCO3 (stereo not drawn) [Example 57]	–	+ (LOQ≤ + <5%)	++ (5%≤ ++ <25%)	++ (5%≤ ++ <25%)	++ (5%≤ ++ <25%)	+ (LOQ≤ + <5%)	+ (LOQ≤ + <5%)	+ (LOQ≤ + <5%)	+ (LOQ≤ + <5%)	+++ (25%≤ +++ <50%)	D (>30 mpk)
CNC[C@H]1OCCCc2cccc(F)c21 [Example 60, (S)-1-(9-fluoro-1,3,4,5-tetrahydrobenzo[c]oxepin-1-yl)-N-methylmethanamine]	3 to 10 mg/kg	+ (LOQ≤ + <5%)	+ (LOQ≤ + <5%)	++ (5%≤ ++ <25%)	+ (LOQ≤ + <5%)	++ (5%≤ ++ <25%)	+ (LOQ≤ + <5%)	++ (5%≤ ++ <25%)	++++ (50%≤ ++++)	+++ (25%≤ +++ <50%)	–
CNC[C@@H]1OCCCc2cccc(F)c21 [Example 61, (R)-1-(9-fluoro-1,3,4,5-tetrahydrobenzo[c]oxepin-1-yl)-N-methylmethanamine]	3 to 10 mg/kg	+ (LOQ≤ + <5%)	+ (LOQ≤ + <5%)	++ (5%≤ ++ <25%)	+ (LOQ≤ + <5%)	+ (LOQ≤ + <5%)	+ (LOQ≤ + <5%)	++++ (50%≤ ++++)	+ (LOQ≤ + <5%)	+++ (25%≤ +++ <50%)	–
CNC[C@H]1OCCc2c(OC)cccc21 [Example 62, (S)-1-(5-methoxyisochroman-1-yl)-N-methylmethanamine]	10 to 30 mg/kg	+ (LOQ≤ + <5%)	++ (5%≤ ++ <25%)	++++ (50%≤ ++++)	+ (LOQ≤ + <5%)	+ (LOQ≤ + <5%)	+ (LOQ≤ + <5%)	+ (LOQ≤ + <5%)	+ (LOQ≤ + <5%)	++ (5%≤ ++ <25%)	–
CNC[C@@H]1OCCc2c(OC)cccc21 [Example 63, (R)-1-(5-methoxyisochroman-1-yl)-N-methylmethanamine]	–	++ (5%≤ ++ <25%)	+ (LOQ≤ + <5%)	++ (5%≤ ++ <25%)	+ (LOQ≤ + <5%)	++++ (50%≤ ++++)	+ (LOQ≤ + <5%)	+ (LOQ≤ + <5%)	++ (5%≤ ++ <25%)	++++ (50%≤ ++++)	A-B
CNC[C@H]1OCCc2ccc(Cl)cc21 [Example 64, (S)-1-(7-chloroisochroman-1-yl)-N-methylmethanamine]	–	+ (LOQ≤ + <5%)	++ (5%≤ ++ <25%)	+++ (25%≤ +++ <50%)	++ (5%≤ ++ <25%)	+ (LOQ≤ + <5%)	+ (LOQ≤ + <5%)	++ (5%≤ ++ <25%)	++ (5%≤ ++ <25%)	++++ (50%≤ ++++)	A-B
CNC[C@@H]1OCCc2ccc(Cl)cc21 [Example 65, (R)-1-(7-chloroisochroman-1-yl)-N-methylmethanamine]	–	+ (LOQ≤ + <5%)	++ (5%≤ ++ <25%)	++ (5%≤ ++ <25%)	+ (LOQ≤ + <5%)	++ (5%≤ ++ <25%)	+ (LOQ≤ + <5%)	++ (5%≤ ++ <25%)	++ (5%≤ ++ <25%)	++++ (50%≤ ++++)	A-B
NC[C@H]1OCCc2c(Cl)cccc21 [Example 66, (S)-(5-chloroisochroman-1-yl)methanamine]	–	+ (LOQ≤ + <5%)	+ (LOQ≤ + <5%)	++ (5%≤ ++ <25%)	+ (LOQ≤ + <5%)	++++ (50%≤ ++++)	+ (LOQ≤ + <5%)	+ (LOQ≤ + <5%)	+ (LOQ≤ + <5%)	+ (LOQ≤ + <5%)	A-B
NC[C@@H]1OCCc2c(Cl)cccc21 [Example 67, (R)-(5-chloroisochroman-1-yl)methanamine]	–	+ (LOQ≤ + <5%)	+ (LOQ≤ + <5%)	++ (5%≤ ++ <25%)	+ (LOQ≤ + <5%)	++++ (50%≤ ++++)	+ (LOQ≤ + <5%)	++ (5%≤ ++ <25%)	+ (LOQ≤ + <5%)	+ (LOQ≤ + <5%)	A-B
CNC[C@H]1OCc2cccc(F)c21 [Example 68, (S)-1-(7-fluoro-1,3-dihydroisobenzofuran-1-yl)-N-methylmethanamine]	3 to 10 mg/kg	+ (LOQ≤ + <5%)	++ (5%≤ ++ <25%)	++ (5%≤ ++ <25%)	++ (5%≤ ++ <25%)	++ (5%≤ ++ <25%)	+ (LOQ≤ + <5%)	++ (5%≤ ++ <25%)	+++ (25%≤ +++ <50%)	++ (5%≤ ++ <25%)	–
